Measurements published in PubChem BioAssay AID1996.
Values after ≈ are worked out from the molar mass of the structure shown.

Details: buffer; pH 7.4; 200.0 µM

Row | SMILES | solubility kinetic [µg/mL]
1 | Cc1ccnc(NCc2ccccc2O)c1 | 23 (≈ 107 µM)
2 | CC(NS(=O)(=O)c1ccc(Cl)c(Cl)c1)C(=O)Nc1cccnc1 (centres undefined) | > 56.1
3 | COc1ccc(NC(=O)COC(=O)CN2C(=O)C3CC=CCC3C2=O)c([N+](=O)[O-])c1 (centres undefined) | > 62.6
4 | COc1ccc(C(=O)NCCNC(=O)c2cnccn2)cc1 | 37.1 (≈ 124 µM)
5 | Cc1ccc(N2C(=O)C(Cl)=C(N3CCCCCC3)C2=O)cc1 | 10.6 (≈ 33.2 µM)
6 | O=C(NCc1ccco1)c1ccc2c(c1)OCCO2 | 37.6 (≈ 145 µM)
7 | CCC(C)NC(=O)c1cc2cc3ccc(OC)cc3nc2o1 (centres undefined) | 30.4 (≈ 102 µM)
8 | COCCCN1CN(Cc2ccco2)CNC1=S | > 40.4
9 | N#Cc1cc2ccccc2nc1N | > 25.4
10 | Cc1cc(=O)c2cc(Br)ccc2n1CC(=O)NCc1ccccc1 | 1.3 (≈ 3.37 µM)
11 | CCOC(=O)C1=C(COC(=O)CCc2ccc(CC)cc2)NC(=O)NC1C (centres undefined) | 40 (≈ 107 µM)
12 | O=C(Nc1ccc(NC(=O)c2ccco2)cc1)c1ccco1 | 2.5 (≈ 8.44 µM)
13 | N#Cc1ccc(OCc2noc(-c3ccsc3)n2)cc1 | 0.3 (≈ 1.06 µM)
14 | CN(C)c1ccc(C(=O)NCc2ccc3c(c2)CCO3)cc1 | 34.3 (≈ 116 µM)
15 | N#CC1c2ccccc2C=CN1C(=O)c1ccccc1 (centres undefined) | 27.6 (≈ 106 µM)
16 | C[N+]1(C)C2CCC1CC(OC(=O)c1ccccc1)C2.[Br-] (centres undefined) | > 51
17 | c1ccc2c(c1)OCCc1c-2[nH]c2ccccc12 | 3 (≈ 12.8 µM)
18 | CC(=O)Oc1ccc(N(C(C)=O)S(=O)(=O)c2ccc(C)cc2C)c2ccccc12 | 4.3 (≈ 10.5 µM)
19 | CCC(C)NC(=O)c1c(N)n(CCCOC)c2nc3ccccc3nc12 (centres undefined) | 6.4 (≈ 18 µM)
20 | Cc1onc(-c2ccccc2Cl)c1C(=O)OCC(=O)N1CCCCC1 | > 54.4
21 | COc1ccccc1NC(=O)c1cc(Cl)nnc1Cl | > 44.7
22 | O=C(CN1CCCCCCC1)Nc1cccc(Cl)c1Cl | < 0.3
23 | COc1ccc(C(=O)N[C@H](C(=O)NCc2ccc(C)cc2)C(C)C)cc1 | 1.1 (≈ 3.1 µM)
24 | CC(=O)N1CCN(C(=O)c2cc(C)nc3ccccc23)CC1 | 33.7 (≈ 113 µM)
25 | O=C(Nc1ccc2c(c1)OCCO2)c1ccc(Cl)c(Cl)c1 | < 0.7
26 | COc1ccccc1N1CCN(Cc2cnc(-c3ccccc3)[nH]2)CC1 | 15.1 (≈ 43.3 µM)

Row | SMILES | solubility kinetic [µg/mL]
27 | S=C(NCCNC(=S)Nc1ccccc1)Nc1ccccc1 | 9.4 (≈ 28.4 µM)
28 | COc1cc(C(=O)NCCSc2ccccc2)cc(OC)c1OC | 49.9 (≈ 144 µM)
29 | O=C(NCCC1=CCCCC1)C1CCN(S(=O)(=O)N2CCCC2)CC1 | 50.7 (≈ 137 µM)
30 | CCC(C)NC(=O)c1ccc(C(=O)c2ccccc2)cc1 (centres undefined) | 41.6 (≈ 148 µM)
31 | COc1ccc(NC(=O)c2ccc3ncsc3c2)cc1 | 1.3 (≈ 4.57 µM)
32 | CC(=O)c1c2c3c(cccc3n(C)c1=O)C(=O)c1ccccc1-2 | < 0.6
33 | CCC(C(=O)NC1CCN(C)CC1)c1ccccc1 (centres undefined) | > 39.1
34 | Cc1ccc(OCC(=O)NCCCNC(=O)c2cccnc2)cc1C | > 51.2
35 | CC1CCC2(CC1)NC(=O)N(CC(=O)Nc1ccc(C(N)=O)cc1)C2=O (centres undefined) | > 53.8
36 | CC(=O)Nc1ccc(N2C(=O)CC(Sc3nccc(C)n3)C2=O)cc1 (centres undefined) | > 53.5
37 | CCCc1c(O)nc(SCC(=O)O)[nH]c1=O | > 36.6
38 | OC1CCCCC1N1CCC(c2ccccc2)CC1 (centres undefined) | > 38.9
39 | COc1ccc(NC(C)=O)cc1CP(=O)(c1ccccc1)c1ccccc1 | > 56.9
40 | Cn1ccsc1=NC(=O)c1ccc(OC(F)(F)F)cc1 | 9.3 (≈ 30.8 µM)
41 | O=C(COC(=O)C1CC1)NC(=O)c1ccccc1 | > 37.1
42 | Cc1ccc(C(=O)NCCC(=O)NCc2ccco2)cc1 | > 42.9
43 | Cc1c(C(=O)Nc2cccnc2)oc2ccc(Br)cc12 | < 0.4
44 | CC1CCCCC1Nc1ncnc2sccc12 (centres undefined) | > 37.1
45 | CC(Oc1ccccc1Cl)C(=O)N1CCCN(C)CC1 (centres undefined) | > 44.5
46 | CS(=O)(=O)N1CCCC(C(=O)Nc2cccc(F)c2)C1 (centres undefined) | > 45.1
47 | CC(=O)N1CCN(CC(=O)Nc2ccc(C#N)c(Cl)c2)CC1 | > 48.1
48 | CSc1ccc(S(=O)(=O)NCCCn2ccnc2)cc1 | > 46.7
49 | CC(=O)c1ccc(NC(=O)C(C)Nc2ccc(Cl)cc2)cc1 (centres undefined) | 40.9 (≈ 129 µM)
50 | Fc1ccc2[nH]c3c(Cl)ncnc3c2c1 | 7.9 (≈ 35.6 µM)
51 | Cc1cccc(C(=O)Nc2ccc3c(c2)C(=O)N(CC(C)C)C3=O)c1 | < 0.4

Results, then the molecule that gave them:

Row | solubility kinetic [µg/mL] | SMILES
52 | < 0.4 | COC(=O)c1cccc(NC(=O)c2ccc3c(c2)C(=O)N(C(C)(C)C)C3=O)c1
53 | > 52.1 | O=C(CSc1ccc(-c2ccc(F)cc2)nn1)NCC1CCCO1 (centres undefined)
54 | > 49.9 | Nc1cc(N)nc(SCC(=O)NNC(=O)Cc2ccccc2)n1
55 | 5.2 (≈ 18.2 µM) | Cc1ccnc(NC(=O)c2cc3cc(F)ccc3s2)c1
56 | 43.2 (≈ 145 µM) | O=C(Cc1ccccc1[N+](=O)[O-])NCCCc1ccccc1
57 | 3.2 (≈ 10.8 µM) | CC1CCN(S(=O)(=O)c2ccc3[nH]c(=O)[nH]c3c2)CC1
58 | 1.5 (≈ 4.9 µM) | O=C(Nc1ccc(Nc2ccccc2)cc1)c1ccccc1F
59 | 4.1 (≈ 11.6 µM) | COc1ccc(N(C)C(=S)Nc2ccc3nc(C)c(C)nc3c2)cc1
60 | > 39.6 | CCNC(=S)Nc1ccc(OC(F)(F)F)cc1
61 | < 0.6 | O=C(O/N=C1\CCCc2ccccc21)c1cccs1
62 | > 36.1 | C=CCNC(=O)c1ccc([N+](=O)[O-])c(Cl)c1
63 | > 48.9 | O=C(O)[C@H](Cc1c[nH]c2ccccc12)Nc1ncccc1[N+](=O)[O-]
64 | > 38.8 | CC12CN3CC(C)(CN(C1)C3c1ccccc1)C2O (centres undefined)
65 | 23.4 (≈ 67.4 µM) | CC1(C)CC2CC(C)(CN2C(=O)COC(=O)c2ccc(O)cc2O)C1 (centres undefined)
66 | 30.7 (≈ 87.6 µM) | CCOC(=O)C1=C(O)/C(=C/c2cc(C)n(-c3ccccc3)c2C)N=C1C
67 | > 48.4 | Cc1cc(NC(=O)CSc2nc(C)c(C)n2CC(C)C)no1
68 | > 48.7 | CN1C2CCC1CC(NC(=O)CSc1ccc(Cl)cc1)C2 (centres undefined)
69 | > 56.8 | CCOC(=O)CCCNC(=O)CCNC(=O)c1ccc(OCC(C)C)cc1
70 | 3.3 (≈ 11.3 µM) | C=CCN1C(=S)CC(c2ccccc2)=Nc2ccccc21
71 | 6 (≈ 17.1 µM) | NC(=O)c1ccsc1NC(=O)CSc1ncnc2sccc12
72 | > 47.7 | O=C(O)CCNC(=O)/C(=C\c1ccco1)NC(=O)c1ccco1
73 | > 43.7 | COCCNC(=O)COC(=O)C1=Cc2ccccc2OC1
74 | 4 (≈ 12 µM) | O=C(OCCC1Oc2cccnc2NC1=O)c1ccc(Cl)cc1 (centres undefined)

Row | solubility kinetic [µg/mL] | SMILES
75 | 46.7 (≈ 142 µM) | Cc1ccccc1C(=O)N1CCC(C(=O)Nc2nccs2)CC1
76 | 6.4 (≈ 20.9 µM) | COc1cc(C)cc(OC)c1OCC(=O)Nc1cc(C)on1
77 | < 0.3 | COc1ccc(C)cc1NC(=O)NC1CCCCCCC1
78 | > 50.5 | O=C1NCCN1CCN1C(=O)c2ccccc2NC1c1ccccc1 (centres undefined)
79 | 42.7 (≈ 130 µM) | CCOC(=O)C1(C)Oc2ccc(S(=O)(=O)CC)cc2NC1=O (centres undefined)
80 | 22.6 (≈ 77.6 µM) | CC1CCCCC1NC(=O)COC(=O)/C=C/c1ccco1 (centres undefined)
81 | 2.9 (≈ 8.49 µM) | C/C=C/c1ccc(OCC(=O)NCc2ccccc2OC)c(OC)c1
82 | > 52.6 | O=C(COC(=O)C1CCCO1)Nc1nc(-c2ccc(F)cc2)cs1 (centres undefined)
83 | > 30.5 | O=C(NCCCc1ccccc1)C1CC1
84 | 15.4 (≈ 58.5 µM) | CC(C)c1ccc(N=C2N=C(N)c3ccccc32)cc1
85 | 36.3 (≈ 147 µM) | O=c1c([N+](=O)[O-])c(O)c2cccc3c2n1CCC3
86 | 44.9 (≈ 128 µM) | COc1ccccc1NC(=O)N1CCC(c2nc3ccccc3o2)CC1
87 | > 56.7 | COC(=O)CNC(=O)CCc1nnc(C2(c3ccc(Cl)cc3)CCC2)o1
88 | 2.6 (≈ 7.53 µM) | Cc1[nH]c2ccccc2c1C(=O)C(=O)NCCc1c[nH]c2ccccc12
89 | < 0.3 | O=C(Nc1ccsc1C(=O)N1CCCC1)c1ccccc1
90 | > 59.6 | COc1ccc(N2CCN(C(=O)[C@H](C)N3C(=O)C4CC=CCC4C3=O)CC2)cc1 (some centres undefined)
91 | 43 | CN(C)CC/C=C1\c2ccccc2Sc2cc(F)c(Cl)cc21.Cl
92 | > 52.9 | Cc1ccc(S(=O)(=O)CCC(=O)Nc2sccc2C(N)=O)cc1
93 | > 44.3 | O=C(NCc1ccccn1)Nc1ccccc1C(F)(F)F
94 | > 45.7 | Cc1cc(C(=O)OCC(=O)NC2(C#N)CCCCC2)c(C)o1
95 | > 74.8 | CCN(CC)S(=O)(=O)c1ccc(N2CC(C(=O)N3Cc4ccccc4CC3C(N)=O)CC2=O)cc1 (centres undefined)
96 | 5.6 (≈ 18.6 µM) | O=C(/C=C/c1ccco1)N1CCN(c2ccc(F)cc2)CC1
97 | > 37.7 | CC(Sc1ncccn1)C(=O)NC1CCCC1 (centres undefined)

Row | solubility kinetic [µg/mL] | SMILES
98 | > 37.4 | Cc1cccc(C(=O)OCC(=O)NC2CC2)c1O
99 | > 50.4 | Cc1ccccc1C(=O)NCC(=O)Nc1ccccc1C(F)(F)F
100 | > 45.1 | Cc1nn(CC(=O)N2CCN(C)CC2)c(=O)c2ccccc12
101 | > 50.3 | CCC(NC(C)C)C(O)c1ccc(O)c(O)c1.CS(=O)(=O)O (centres undefined)
102 | 13.6 (≈ 41.4 µM) | CC(C(=O)Nc1ccc(F)c(F)c1F)N(C)Cc1cccs1 (centres undefined)
103 | < 0.4 | Cc1cc(OC(F)F)ccc1NC(=O)Nc1ccc2c(c1)OCO2
104 | < 0.6 | Cc1ccc(C(=O)CCC(=O)Nc2cccc(C)c2)cc1
105 | > 50.9 | CCOc1ccc(CN(C)C(=O)c2cc3ccccc3o2)cc1OC
106 | < 0.4 | CCc1ccc(N2C(=O)CN(Cc3sccc3C)C2=S)cc1
107 | 45.8 (≈ 139 µM) | Cc1ccc(N2CC(C(=O)Nc3cccnc3)CC2=O)cc1Cl (centres undefined)
108 | 38.5 (≈ 94.7 µM) | Cc1ccccc1OCCC(=O)N1CCN(S(=O)(=O)c2ccccc2F)CC1
109 | > 50.4 | Cc1ccc(NC(=O)CN2C(=O)NC3(CCCC3)C2=O)c(Cl)c1
110 | 3.9 (≈ 13.7 µM) | COC(=O)c1ccc2c(c1)NC(=O)c1ccccc1S2
111 | 4.6 (≈ 13.7 µM) | CCC(=O)NCc1c(C)c(C)n(Cc2ccccc2)c1-n1cccc1
112 | 2.5 (≈ 7 µM) | Cc1ccc(Cl)cc1NC(=S)NCCCSC1CCCCC1
113 | 8.3 (≈ 29.4 µM) | COc1ccc(N2C(=O)c3ccccc3NC2(C)C)cc1
114 | < 0.7 | O=c1oc2cc(Br)ccc2n1Cc1ccccc1
115 | > 47.4 | O=C(CCS(=O)(=O)c1ccc(Cl)cc1)NC1CCCC1
116 | > 34.7 | NC(=O)CCCc1nc(-c2ccccc2)no1
117 | 0.6 (≈ 1.73 µM) | Cc1cccc(NC(=O)Cn2cc(C(=O)C3CC3)c3ccccc32)c1C
118 | 36.9 (≈ 120 µM) | CN(Cc1nc(-c2cccc(Cl)c2)no1)C1CCOCC1
119 | 18 (≈ 50.1 µM) | CC(=O)NC1C(=O)N(Cc2ccccc2)c2ccc(Br)cc21 (centres undefined)
